Test results reported in the NIST ThermoML archive (doi:10.1016/j.jct.2015.08.014).
± gives the expanded uncertainty stated by the source.

Assay: xn = mol fraction of the nth substance listed
Settings: 313.15 K, 100 kPa, Liquid, Alternating current cell with electrodes

CCCC[N+]1(C)CCCC1.N#CN=C=[N-] [1-butyl-1-methylpyrrolidinium dicyanamide] + O=C1CCCO1
Settings	electrical conductivity [S/m]
Frequency=0.002 MHz, x1 = 1	2 ± 0.02
Frequency=0.0025 MHz, x1 = 0.0463	1.79 ± 0.032
Frequency=0.0025 MHz, x1 = 0.0987	2.72 ± 0.034
Frequency=0.0025 MHz, x1 = 0.1449	3.13 ± 0.033
Frequency=0.0025 MHz, x1 = 0.1859	3.36 ± 0.034
Frequency=0.0025 MHz, x1 = 0.2493	3.36 ± 0.034
Frequency=0.0025 MHz, x1 = 0.3029	3.315 ± 0.033
Frequency=0.0025 MHz, x1 = 0.3845	3.16 ± 0.032
Frequency=0.0025 MHz, x1 = 0.4985	2.87 ± 0.029
Frequency=0.0025 MHz, x1 = 0.6954	2.425 ± 0.024
Frequency=0.0025 MHz, x1 = 0.9013	2.09 ± 0.021
Frequency=0.0025 MHz, x1 = 1	2 ± 0.02
Frequency=0.003 MHz, x1 = 0.0463	1.79 ± 0.032
Frequency=0.003 MHz, x1 = 0.0987	2.72 ± 0.034
Frequency=0.003 MHz, x1 = 0.1449	3.13 ± 0.033
Frequency=0.003 MHz, x1 = 0.1859	3.36 ± 0.034
Frequency=0.003 MHz, x1 = 0.2493	3.36 ± 0.034
Frequency=0.003 MHz, x1 = 0.3029	3.316 ± 0.033
Frequency=0.003 MHz, x1 = 0.3845	3.16 ± 0.032
Frequency=0.003 MHz, x1 = 0.4985	2.87 ± 0.029
Frequency=0.003 MHz, x1 = 0.6954	2.425 ± 0.024
Frequency=0.003 MHz, x1 = 0.9013	2.09 ± 0.021
Frequency=0.003 MHz, x1 = 1	2 ± 0.02
Frequency=0.00347222 MHz, x1 = 0.0463	1.79 ± 0.032
Frequency=0.00347222 MHz, x1 = 0.0987	2.72 ± 0.034
Frequency=0.00347222 MHz, x1 = 0.1449	3.13 ± 0.033
Frequency=0.00347222 MHz, x1 = 0.1859	3.37 ± 0.034
Frequency=0.00347222 MHz, x1 = 0.2493	3.36 ± 0.034
Frequency=0.00347222 MHz, x1 = 0.3029	3.317 ± 0.033
Frequency=0.00347222 MHz, x1 = 0.3845	3.16 ± 0.032
Frequency=0.00347222 MHz, x1 = 0.4985	2.87 ± 0.029
Frequency=0.00347222 MHz, x1 = 0.6954	2.425 ± 0.024
Frequency=0.00347222 MHz, x1 = 0.9013	2.09 ± 0.021
Frequency=0.00347222 MHz, x1 = 1	2 ± 0.02
Frequency=0.004 MHz, x1 = 0.0463	1.79 ± 0.032
Frequency=0.004 MHz, x1 = 0.0987	2.73 ± 0.034
Frequency=0.004 MHz, x1 = 0.1449	3.13 ± 0.033
Frequency=0.004 MHz, x1 = 0.1859	3.37 ± 0.034
Frequency=0.004 MHz, x1 = 0.2493	3.36 ± 0.034
Frequency=0.004 MHz, x1 = 0.3029	3.318 ± 0.033
Frequency=0.004 MHz, x1 = 0.3845	3.16 ± 0.032
Frequency=0.004 MHz, x1 = 0.4985	2.88 ± 0.029
Frequency=0.004 MHz, x1 = 0.6954	2.426 ± 0.024
Frequency=0.004 MHz, x1 = 0.9013	2.09 ± 0.021
Frequency=0.004 MHz, x1 = 1	2 ± 0.02
Frequency=0.00446429 MHz, x1 = 0.0463	1.79 ± 0.032
Frequency=0.00446429 MHz, x1 = 0.0987	2.73 ± 0.034
Frequency=0.00446429 MHz, x1 = 0.1449	3.13 ± 0.033
Frequency=0.00446429 MHz, x1 = 0.1859	3.37 ± 0.034
Frequency=0.00446429 MHz, x1 = 0.2493	3.36 ± 0.034
Frequency=0.00446429 MHz, x1 = 0.3029	3.318 ± 0.033
Frequency=0.00446429 MHz, x1 = 0.3845	3.16 ± 0.032
Frequency=0.00446429 MHz, x1 = 0.4985	2.88 ± 0.029
Frequency=0.00446429 MHz, x1 = 0.6954	2.426 ± 0.024
Frequency=0.00446429 MHz, x1 = 0.9013	2.09 ± 0.021
Frequency=0.00446429 MHz, x1 = 1	2 ± 0.02
Frequency=0.005 MHz, x1 = 0.0463	1.79 ± 0.032
Frequency=0.005 MHz, x1 = 0.0987	2.73 ± 0.034
Frequency=0.005 MHz, x1 = 0.1449	3.13 ± 0.033
Frequency=0.005 MHz, x1 = 0.1859	3.37 ± 0.034
Frequency=0.005 MHz, x1 = 0.2493	3.36 ± 0.034
Frequency=0.005 MHz, x1 = 0.3029	3.319 ± 0.033
Frequency=0.005 MHz, x1 = 0.3845	3.16 ± 0.032
Frequency=0.005 MHz, x1 = 0.4985	2.88 ± 0.029
Frequency=0.005 MHz, x1 = 0.6954	2.426 ± 0.024
Frequency=0.005 MHz, x1 = 0.9013	2.09 ± 0.021
Frequency=0.005 MHz, x1 = 1	2 ± 0.02
Frequency=0.005454 MHz, x1 = 0.0463	1.79 ± 0.032
Frequency=0.005454 MHz, x1 = 0.0987	2.73 ± 0.034
Frequency=0.005454 MHz, x1 = 0.1449	3.13 ± 0.033
Frequency=0.005454 MHz, x1 = 0.1859	3.37 ± 0.034
Frequency=0.005454 MHz, x1 = 0.2493	3.36 ± 0.034
Frequency=0.005454 MHz, x1 = 0.3029	3.319 ± 0.033
Frequency=0.005454 MHz, x1 = 0.3845	3.16 ± 0.032
Frequency=0.005454 MHz, x1 = 0.4985	2.88 ± 0.029
Frequency=0.005454 MHz, x1 = 0.6954	2.426 ± 0.024
Frequency=0.005454 MHz, x1 = 0.9013	2.09 ± 0.021
Frequency=0.005454 MHz, x1 = 1	2 ± 0.02
Frequency=0.006 MHz, x1 = 0.0463	1.79 ± 0.032
Frequency=0.006 MHz, x1 = 0.0987	2.73 ± 0.034
Frequency=0.006 MHz, x1 = 0.1449	3.13 ± 0.033
Frequency=0.006 MHz, x1 = 0.1859	3.37 ± 0.034
Frequency=0.006 MHz, x1 = 0.2493	3.36 ± 0.034
Frequency=0.006 MHz, x1 = 0.3029	3.32 ± 0.033
Frequency=0.006 MHz, x1 = 0.3845	3.16 ± 0.032
Frequency=0.006 MHz, x1 = 0.4985	2.88 ± 0.029
Frequency=0.006 MHz, x1 = 0.6954	2.43 ± 0.025
Frequency=0.006 MHz, x1 = 0.9013	2.09 ± 0.021
Frequency=0.006 MHz, x1 = 1	2 ± 0.02
Frequency=0.00652174 MHz, x1 = 0.0463	1.79 ± 0.032
Frequency=0.00652174 MHz, x1 = 0.0987	2.73 ± 0.034
Frequency=0.00652174 MHz, x1 = 0.1449	3.13 ± 0.033
Frequency=0.00652174 MHz, x1 = 0.1859	3.37 ± 0.034
Frequency=0.00652174 MHz, x1 = 0.2493	3.36 ± 0.034
Frequency=0.00652174 MHz, x1 = 0.3029	3.32 ± 0.033
Frequency=0.00652174 MHz, x1 = 0.3845	3.16 ± 0.032
Frequency=0.00652174 MHz, x1 = 0.4985	2.88 ± 0.029
Frequency=0.00652174 MHz, x1 = 0.6954	2.43 ± 0.025
Frequency=0.00652174 MHz, x1 = 0.9013	2.09 ± 0.021
Frequency=0.00652174 MHz, x1 = 1	2 ± 0.02
Frequency=0.00694444 MHz, x1 = 0.0463	1.79 ± 0.032
Frequency=0.00694444 MHz, x1 = 0.0987	2.73 ± 0.034
Frequency=0.00694444 MHz, x1 = 0.1449	3.13 ± 0.033
Frequency=0.00694444 MHz, x1 = 0.1859	3.37 ± 0.034
Frequency=0.00694444 MHz, x1 = 0.2493	3.36 ± 0.034
Frequency=0.00694444 MHz, x1 = 0.3029	3.32 ± 0.033
Frequency=0.00694444 MHz, x1 = 0.3845	3.16 ± 0.032
